The values that follow are results of earlier work, collected in patent US7163956B2, “Substituted fullerene compositions and their use as antioxidants” (C Sixty Inc., priority 2003, dated 2007).

The series has as its system mice. The following applies: oral administration, about 0.5 mg/kg/day.

As for (C60(>C(COOH)2)3) [C3], the “increase in mean survival relative to controls” value was roughly 20%. The mean survival (controls 23.5+/−5.5 months, p=0.033) is 28.7+/−3.3 months.
